Source: paper PMC8466373, “Plant-Derived and Dietary Hydroxybenzoic Acids—A Comprehensive Study of Structural, Anti-/Pro-Oxidant, Lipophilic, Antimicrobial, and Cytotoxic Activity in MDA-MB-231 and MCF-7 Cell Lines” (Nutrients, 2021)
≈ marks a conversion by molar mass, not a printed value. Where “and” joins values, the source holds several entries; their conditions need not be identical. Identical values can stand only once. Like-named read-outs stand apart in the source and are kept apart here. Marks after values point to notes of the source that are not given here.

Key:
[1] = tested on: Pseudomonas aeruginosa (PCM 2720); assay: MIC by serial dilution in agar medium; type: cell-based
Protocol: (§1) The following bacterial strains were used in this study: Escherichia coli (PCM 2857), Pseudomonas aeruginosa (PCM 2720), Bacillus subtilis (PCM 2850), Staphylococcus aureus (PCM 2267), Salmonella enteritidis (NCTC 4776), and Candida albicans (PCM 2566-FY). The microbial strains were bought from the Polish Collection of Microorganisms (Wroclaw, Poland) or the American Type Culture Collection. Bacteria (0.1 mL of the reconstituted suspension) were seeded onto sterile Mueller–Hinton agar plates (Biomaxima), to which previously suitable amounts of the tested compounds were added to give the desired concentration.
(§2) The MIC (minimal inhibitory concentration) was determined by serial dilution of the tested compound in an agar medium, to which the appropriate inoculum of microorganisms was then added and incubated. Escherichia coli, Pseudomonas aeruginosa, Staphylococcus aureus, Bacillus subtilis, Salmonella enteritidis, and Candida albicans were grown overnight and then resuspended in physiological saline to an optical density at 600 nm (OD = 600) of 0.60, corresponding to 5.0 × 10^8 CFU/mL. Bacteria (0.1 mL of the reconstituted suspension) were seeded onto sterile Mueller–Hinton agar plates, to which previously suitable amounts of the tested compounds were added to reach the desired concentration. Tested chemicals were dissolved in DMSO solution. Negative controls were agar plates, to which DMSO was added, while positive controls were plates with gentamycin (in the case of bacteria) or flucanozole (in the case of fungi). The plates were incubated at 37 °C for 24 h. The lowest concentration without visible bacterial growth was determined as the MIC.

[2] = tested on: Escherichia coli (PCM 2857); assay: MIC by serial dilution in agar medium; type: cell-based
Protocol: as §1, §2

[3] = tested on: Candida albicans (PCM 2566-FY); assay: MIC by serial dilution in agar medium; type: cell-based
Protocol: as §1, §2

[4] = tested on: Staphylococcus aureus (PCM 2267); assay: MIC by serial dilution in agar medium; type: cell-based
Protocol: as §1, §2

[5] = tested on: Bacillus subtilis (PCM 2850); assay: MIC by serial dilution in agar medium; type: cell-based
Protocol: as §1, §2

ABTS assay = type: biochemical; settings: 50 μM, methanolic solutions, 7 min of reaction time
Protocol: ABTS assay was conducted according to the procedure of Re et al.. […] The absorbance of the solutions was measured with a UV–Vis spectrophotometer at 734 nm against methanol (the blank). The ability to scavenge ABTS^•+ cation radicals was expressed as the %I of ABTS^•+ and calculated according to the aforementioned equation.

[6] = FRAP assay (ferric-reducing antioxidant power); type: biochemical; parameters: key: (-): Negative values were obtained for these acids; settings: concentration of 50 μM, methanolic solutions
Protocol: FRAP assay was carried out as described in [42]. […] After 8 min of incubation at 23 °C, the absorbance at 595 nm was measured against the blank (containing 0.4 mL of methanol instead of the sample). Ferric-reducing antioxidant activity was expressed as Fe(II) ion equivalents (μM) using the calibration curve obtained for FeSO4 (the standard curve equation: y = 3.4303x − 0.1058; R^2 = 0.9984).

[7] = Cytotoxicity, neutral red (NR) assay; type: cell-based, human; settings: human, 48 h treatment, neutral red assay
Protocol: Briefly, MCF-7 cells were cultured in EMEM (Biological Industries, Israel) medium supplemented with 10% fetal calf serum (Gibco). MDA-MB-231 cells were cultured in Leibovitz‘s L15 (Biological Industries, Beit HaEmek, Israel) medium supplemented with 10% fetal calf serum (Gibco). The MCF-7 cells were incubated in a 5% CO2 atmosphere at 37 °C, whereas the MDA-231 cells were incubated in a 100% air atmosphere at 37 °C.
Cytotoxicity evaluation was conducted to assess the impact of hydroxybenzoic acids on the proliferation of MCF-7 and MDA-MB-231 cells, which was measured via neutral red (NR) assay. In brief, cells were seeded in 96-well microplates (TPP, Switzerland) at a density of 2 × 10^4 cells/well in 100 μL of culture medium. At least three independent experiments in six replicate wells were conducted per concentration. Twenty-four hours after cell seeding, cells were treated with increasing concentrations of hydroxybenzoic acids (0.02–5 mM) for forty-eight hours. After treatment, cells were incubated for 3 h at 37 °C with 100 µL of neutral red solution (stock solution of NR) (Sigma-Aldrich), and then 5 mg/mL of PBS was diluted 1:100 in cell culture medium, incubated for 12 h at 37 °C, and centrifuged to remove any undissolved NR powder. […] After 15 min of gentle shaking, optical density was read at 540 nm with an Infinite M200 plate reader spectrophotometer (Tecan, Austria).

DPPH assay = type: biochemical; settings: methanolic solutions, 60 min of reaction time
Protocol: DPPH assay was measured according to the method described by Rice-Evans. Appropriate volumes of methanolic solutions of the tested hydroxybenzoic acids (C = 30 μM) were mixed with methanol in test tubes to prepare a series of solutions of various concentrations (final volume 1 mL). Then, 2 mL of methanolic solution of DPPH^• (C = 60 μM) was added to each tube; the control contained methanol instead of the sample. The tubes with reaction mixtures were capped, vortexed, and left to stand for 60 min at 23 °C in the dark. The absorbance of the solutions was measured by the use of a Cary 5000 UV–Vis spectrophotometer (Santa Clara, CA, USA) at λ = 516 nm against pure methanol. […] The concentration of the tested hydroxybenzoic acids was plotted against the %I, and the IC50 values (antioxidant concentration that inhibited 50% of DPPH^• radicals) were calculated from the obtained scavenging curves.

[8] = cited from earlier work; for inhibition: read-out: DPPH radical scavenging activity (%)
[9] = cited from earlier work
[10] = MCF-7 cells (breast adenocarcinoma), read-out: Cytotoxicity (mM) in Cell Line MCF-7, IC50
[11] = MDA-MB-231 cells (breast adenocarcinoma), read-out: Cytotoxicity (mM) in Cell Line MDA-MB-231, IC50
[12] = CDPPH = 60 μM, t = 30 min, read-out: DPPH, IC50
[13] = CDPPH = 90 μM, t = 30 min, read-out: DPPH, IC50
[14] = CDPPH = 1 mM, t = 20 min, read-out: DPPH, IC50
[15] = C = 0,001 mg/mL, λ = 593 nm, t = 30 min
[16] = C = 10 μM, CDPPH = 100 μM, t = 30 min
[17] = C = 15 μM, CDPPH = 60 μM, t = 30 min
[18] = read-out: Cytotoxicity (mM) in Cell Line MCF-7, IC50
[19] = read-out: Cytotoxicity (mM) in Cell Line MDA-MB-231, IC50

Row | Compound | MIC ([1]; read-out: MIC) [mg/L] | MIC ([2]; read-out: MIC) [mg/L] | MIC ([3]; read-out: MIC) [mg/L] | MIC ([4]; read-out: MIC) [mg/L] | MIC ([5]; read-out: MIC) [mg/L] | Inhibition of ABTS•+ radicals (%I) (ABTS assay) [%] | FRAP [6] | IC50 at 48 h [7, 10] [mM] | IC50 at 48 h [7, 11] [mM] | IC50 (DPPH assay) [µM] | IC50 [8, 12] [µM] | IC50 [8, 13] [µM] | IC50 [8, 14] [µM] | FRAP [9, 15] | inhibition [8, 16] [%] | inhibition [8, 17] [%] | IC50 at 48 h [7, 18] [mM] | IC50 at 48 h [7, 19] [mM] | other results
1 | O=C(O)c1cccc(O)c1O [2,3-DHB, 2,3-Dihydroxybenzoic acid] | 5000 (≈ 32.4 mM) | 5000 (≈ 32.4 mM) | 5000 (≈ 32.4 mM) | 5000 (≈ 32.4 mM) | 5000 (≈ 32.4 mM) | 86.40 | 173.79 µM Fe^2+ and 173.79 ± 39.06 µM Fe^2+ | > 5 | 4.1 | 5.86 ± 0.64 | – | – | – | – | – | – | – | – | –
2 | O=C(O)c1cc(O)c(O)c(O)c1 [3,4,5-THB, 3,4,5-trihydroxybenzoic acid] | 4000 (≈ 23.5 mM) | 3000 (≈ 17.6 mM) | 3000 (≈ 17.6 mM) | 6000 (≈ 35.3 mM) | 3000 (≈ 17.6 mM) | 79.50 | 158.10 µM Fe^2+ and 158.10 ± 14.81 µM Fe^2+ | – | – | 2.42 ± 0.08 | – | – | 0.0237 | ≈ 1.03 (C = 0,001 mg/mL), λ = 593 nm, t = 30 min) [73] μM Fe^2+ | ~70 | 88.5 | 0.44 | 0.36 | inhibition ([8]; C ≈ 0.7 mM, CDPPH = 200 μM, t = 30 min): 40%; IC50 ([8]; after 30 min of incubation with a free radical, read-out: DPPH IC50): 4.2 µM
3 | O=C(O)c1ccc(O)c(O)c1 [3,4-DHB, 3,4-dihydroxybenzoic acid] | – | – | – | – | – | 74.51 | 44.22 µM Fe^2+ and 44.22 ± 9.38 µM Fe^2+ | – | – | 5.24 ± 0.95 | 15.8 | – | 0.0574 | ≈ 0.65 (C = 0,001 mg/mL), λ = 593 nm, t = 30 min) [73] μM Fe^2+ | ~70 | ~88.5 | > 5 | > 5 | MIC [1]: 2000 mg/L (≈ 13 mM); MIC [2]: 2000 mg/L (≈ 13 mM); MIC [3]: 2000 mg/L (≈ 13 mM); MIC [4]: 2000 mg/L (≈ 13 mM); MIC [5]: 2000 mg/L (≈ 13 mM); IC50 ([8]; CDPPH = 50 μM, t = 30 min, read-out: DPPH, IC50): 3.83 µM
4 | O=C(O)c1cc(O)cc(O)c1 [3,5-DHB, 3,5-dihydroxybenzoic acid] | 3000 (≈ 19.5 mM) | 2000 (≈ 13 mM) | 2000 (≈ 13 mM) | 2000 (≈ 13 mM) | 2000 (≈ 13 mM) | 60.39 | (-) * | > 5 | > 5 | > 1000 | – | 385 | – | ≈ 0.03 (C = 0,001 mg/mL), λ = 593 nm, t = 30 min) [73] μM Fe^2+ | – | – | – | – | –

The next lines start with results.

Row | MIC ([1]; read-out: MIC) [mg/L] | MIC ([2]; read-out: MIC) [mg/L] | MIC ([3]; read-out: MIC) [mg/L] | MIC ([4]; read-out: MIC) [mg/L] | MIC ([5]; read-out: MIC) [mg/L] | Compound | Inhibition of ABTS•+ radicals (%I) (ABTS assay) [%] | FRAP [6] | IC50 at 48 h [7, 10] [mM] | IC50 at 48 h [7, 11] [mM] | IC50 (DPPH assay) [µM] | IC50 [8, 12] [µM] | IC50 [8, 13] [µM] | IC50 [8, 14] [µM] | FRAP [9, 15] | inhibition [8, 16] [%] | inhibition [8, 17] [%] | IC50 at 48 h [7, 18] [mM] | IC50 at 48 h [7, 19] [mM] | other results
5 | 5000 (≈ 32.4 mM) | 3000 (≈ 19.5 mM) | 5000 (≈ 32.4 mM) | 5000 (≈ 32.4 mM) | 3000 (≈ 19.5 mM) | O=C(O)c1cc(O)ccc1O [2,5-DHB, 2,5-dihydroxybenzoic acid] | 80.11 | 236.00 µM Fe^2+ and 236.00 ± 6.31 µM Fe^2+ | > 5 | 4.39 | 4.99 ± 0.79 | 6.3 | 37 | 0.0292 | ≈ 0.98 (C = 0,001 mg/mL), λ = 593 nm, t = 30 min) [73] μM Fe^2+ | – | – | – | – | IC50 ([8]; CDPPH = 60 μM, t = 60 min, read-out: DPPH, IC50): 4.95 µM; FRAP ([9]; C = 5 μM, λ = 594 nm, t = n.d.): 75.39 (C = 5 μM, λ = 594 nm, t = n.d.) [62] μM Fe^2+; FRAP ([9]; C = 50 μM, λ = 594 nm, t = n.d.): 236.86 (C = 50 μM, λ = 594 nm, t = n.d.) [62] μM Fe^2+
6 | 4000 (≈ 26 mM) | 3000 (≈ 19.5 mM) | 3000 (≈ 19.5 mM) | 5000 (≈ 32.4 mM) | 3000 (≈ 19.5 mM) | O=C(O)c1c(O)cccc1O [2,6-DHB, 2,6-dihydroxybenzoic acid] | 8.12 | (-) * | > 5 | 3.97 | 209 ± 0.98 | – | – | – | – | – | – | – | – | IC50 ([8]; CDPPH = 500 μM, t = 30 min, read-out: DPPH, IC50): 232 µM
